From US11142525B2 (Pfizer Inc., priority 2018, dated 2021) come the findings set out here.

The target of experiment [1] is human full-length recombinant HPK1 (Homo sapiens (Human), UniProt Q92918). The experiment can be described thus: HPK1 biochemical enzyme assay, microfluidic mobility shift assay (MSA). As to conditions: read-out: HPK1 Enzyme Assay_Ki.
The test system of experiment [2] is phospho-SLP-76 (Ser376) in Jurkat cells. Nature of the experiment: Phospho-SLP-76 (Ser376) Homogeneous Time Resolved Fluorescence (HTRF) assay in Jurkat cells. Format: cell-based. To be noted: Homo sapiens, read-out: SLP76 Assay_IC50. A digest of the protocol: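 Phospho-SLP-76 in lysates was read by sandwich HTRF and IC50 derived by four-parameter nonlinear regression. Before lysis, cells had received compound for 30 min (11-point, 3-fold series from 10 μM, 0.1% DMSO), followed by anti-CD3 F(ab)2 complex (200 μg/mL, 15 min, 37 °C).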
A general note: In TR-FRET formats the signal depends on donor and acceptor labels being close together.

[3] abbreviates: mobility shift assay, 75 μM ATP, Morrison equation, tight-binding competitive inhibition.
Where [4] appears, read: 30 min pre-treatment, anti-CD3 stimulation 15 min, HTRF.
The mark [5] stands for this setting: Phospho-SLP-76 (Ser376) HTRF, anti-CD3 stimulation.

Where two headings read alike, the source gives them in different places.

human full-length recombinant HPK1, sequence (Q92918 whole entry): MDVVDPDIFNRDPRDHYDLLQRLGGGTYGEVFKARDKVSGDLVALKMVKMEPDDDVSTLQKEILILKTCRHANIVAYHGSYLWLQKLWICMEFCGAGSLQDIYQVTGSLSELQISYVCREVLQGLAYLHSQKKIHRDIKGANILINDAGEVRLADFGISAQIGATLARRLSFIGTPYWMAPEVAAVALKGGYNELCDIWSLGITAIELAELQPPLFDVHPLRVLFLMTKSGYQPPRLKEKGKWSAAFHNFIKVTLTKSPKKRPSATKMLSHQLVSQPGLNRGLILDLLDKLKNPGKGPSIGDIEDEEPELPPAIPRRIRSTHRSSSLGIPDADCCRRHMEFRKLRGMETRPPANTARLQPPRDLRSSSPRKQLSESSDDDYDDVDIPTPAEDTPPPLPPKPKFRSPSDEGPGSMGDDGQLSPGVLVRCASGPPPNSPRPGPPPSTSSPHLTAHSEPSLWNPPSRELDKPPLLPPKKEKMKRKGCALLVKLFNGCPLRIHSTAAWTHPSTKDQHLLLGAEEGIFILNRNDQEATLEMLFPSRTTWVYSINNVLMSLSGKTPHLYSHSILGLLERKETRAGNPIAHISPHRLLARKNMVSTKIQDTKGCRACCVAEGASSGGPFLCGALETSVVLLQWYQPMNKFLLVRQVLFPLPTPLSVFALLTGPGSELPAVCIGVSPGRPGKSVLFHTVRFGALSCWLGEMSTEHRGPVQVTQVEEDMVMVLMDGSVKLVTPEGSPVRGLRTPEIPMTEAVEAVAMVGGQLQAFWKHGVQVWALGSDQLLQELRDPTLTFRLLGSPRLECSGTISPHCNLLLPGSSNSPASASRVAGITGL

As to `CNCc1nc(C2(C)CC2)cc2c1CN(c1cccc(-c3nncn3C(C)C)n1)C2=O` [Example 7, 4-[(methylamino)methyl]-6-(1-methylcyclopropyl)-2-{6-[4-(propan-2-yl)-4H-1,2,4-triazol-3-yl]pyridin-2-yl}-2,3-dihydro-1H-pyrrolo[3,4-c]pyridin-1-one], in experiment [1] (setting [3]), the Ki is 1.46 nM. Also, the IC50 in experiment [2] (setting [4]) was 730 nM.

Consider `CCn1cnnc1-c1cccc(N2Cc3c(cc(C4CCC4)nc3CNC)C2=O)n1` [Example 101, 6-cyclobutyl-2-[6-(4-ethyl-4H-1,2,4-triazol-3-yl)pyridin-2-yl]-4-[(methylamino)methyl]-2,3-dihydro-1H-pyrrolo[3,4-c]pyridin-1-one], for which, in experiment [1] (HPK1 mobility shift assay), the Ki worked out at 0.94 nM. Besides, the IC50 in experiment [2] (setting [5]) amounted to 217 nM.

In the case of `CCn1cnnc1-c1cccc(N2Cc3c(cc(N(C)C(C)C)nc3CN)C2=O)n1` [Example 89, 4-(aminomethyl)-2-[6-(4-ethyl-4H-1,2,4-triazol-3-yl)pyridin-2-yl]-6-[methyl(propan-2-yl)amino]-2,3-dihydro-1H-pyrrolo[3,4-c]pyridin-1-one], the Ki in experiment [1] (HPK1 mobility shift assay) is less than 0.08 nM. Moreover, in experiment [2] (setting [5]), the IC50 was 54 nM.

For the molecule `C[C@@H]1CCCN1c1cc2c(c(CN)n1)CN(c1cccc(N3C(=O)OC[C@@H]3C)n1)C2=O` [Example 125, 4-(aminomethyl)-2-{6-[(4S)-4-methyl-2-oxo-1,3-oxazolidin-3-yl]pyridin-2-yl}-6-[(2R)-2-methylpyrrolidin-1-yl]-2,3-dihydro-1H-pyrrolo[3,4-c]pyridin-1-one], the Ki in experiment [1] (HPK1 mobility shift assay) amounted to 0.1 nM. Moreover, in experiment [2] (setting [5]), the IC50 was 50 nM.

Take `C[C@H]1COC(=O)N1c1cccc(N2Cc3c(cc(C4CC4)nc3CN)C2=O)n1` [Example 26, 4-(aminomethyl)-6-cyclopropyl-2-{6-[(4S)-4-methyl-2-oxo-1,3-oxazolidin-3-yl]pyridin-2-yl}-2,3-dihydro-1H-pyrrolo[3,4-c]pyridin-1-one]: in experiment [1] (setting [3]), the Ki was found to be 0.9 nM. Besides, the IC50 in experiment [2] (setting [4]) was 439 nM.

On to `Cc1nnc(-c2cccc(N3Cc4c(cc(N5[C@H](C)CC[C@H]5C)nc4CN)C3=O)n2)n1C(C)C` [Example 169], for which the Ki in experiment [1] (HPK1 mobility shift assay) was determined as 0.95 nM. Besides, the IC50 in experiment [2] (setting [5]) was found to be 179 nM.

Consider `CCN(c1cc2c(c(CN)n1)CN(c1cccc(-c3nncs3)n1)C2=O)C(C)C` [Example 140, 4-(aminomethyl)-6-[ethyl(propan-2-yl)amino]-2-[6-(1,3,4-thiadiazol-2-yl)pyridin-2-yl]-2,3-dihydro-1H-pyrrolo[3,4-c]pyridin-1-one], for which the Ki in experiment [1] (HPK1 mobility shift assay) was found to be 2.07 nM. Besides, the IC50 in experiment [2] (setting [5]) worked out at 464 nM.

As to `CNCc1nc(C2CC2)cc2c1CN(c1cccc(N3C(=O)OC[C@@H]3CF)n1)C2=O` [Example 87, 6-cyclopropyl-2-{6-[(4R)-4-(fluoromethyl)-2-oxo-1,3-oxazolidin-3-yl]pyridin-2-yl}-4-[(methylamino)methyl]-2,3-dihydro-1H-pyrrolo[3,4-c]pyridin-1-one], the Ki in experiment [1] (HPK1 mobility shift assay) was 1.44 nM. Also, the IC50 in experiment [2] (setting [5]) amounted to 299 nM.
